From US7960377B2 (priority 2008, dated 2011)

Molecular target: human CB1 receptor (Homo sapiens, UniProt P21554)
Assay: cell-based
Conditions: for inverse agonist mark, human CB1 receptor: asterisk at the compound number

Chain of human CB1 receptor (P21554 whole entry): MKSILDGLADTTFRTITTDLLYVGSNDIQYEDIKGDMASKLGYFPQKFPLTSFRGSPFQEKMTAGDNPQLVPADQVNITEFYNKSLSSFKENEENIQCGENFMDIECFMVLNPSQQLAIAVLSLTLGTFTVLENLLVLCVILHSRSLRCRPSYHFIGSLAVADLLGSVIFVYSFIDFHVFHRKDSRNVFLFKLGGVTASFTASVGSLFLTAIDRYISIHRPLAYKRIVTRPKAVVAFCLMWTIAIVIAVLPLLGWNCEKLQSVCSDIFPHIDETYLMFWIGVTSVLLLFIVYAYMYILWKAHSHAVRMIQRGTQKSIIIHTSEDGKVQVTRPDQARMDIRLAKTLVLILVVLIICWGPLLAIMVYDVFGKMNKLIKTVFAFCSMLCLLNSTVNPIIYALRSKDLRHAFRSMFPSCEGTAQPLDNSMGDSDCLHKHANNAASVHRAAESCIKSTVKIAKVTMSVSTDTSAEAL

Compound	EC50	inverse agonist mark, human CB1 receptor
Cc1cc(F)ccc1S(=O)(=O)N1CCOc2ncc(C(=O)NC(C)(C)C)cc21 [Example 56, N-tert-butyl-1-(4-fluoro-2-methylphenylsulfonyl)-2,3-dihydro-1H-pyrido[2,3-b][1,4]oxazine-7-carboxamide]	> 30 µM	
CC(C)(C)NC(=O)c1cnc2c(c1)N(S(=O)(=O)c1ccc(F)cc1Cl)CCO2 [Example 57, N-tert-butyl-1-(2-chloro-4-fluorophenylsulfonyl)-2,3-dihydro-1H-pyrido[2,3-b][1,4]oxazine-7-carboxamide]	> 30 µM	
CC(C)(C)NC(=O)c1cnc2c(c1)N(S(=O)(=O)Cc1ccccc1)CCO2 [Example 60, 1-(benzylsulfonyl)-N-tert-butyl-2,3-dihydro-1H-pyrido[2,3-b][1,4]oxazine-7-carboxamide]	> 30 µM	
CC(C)(C)NC(=O)c1cnc2c(c1)N(S(=O)(=O)Cc1ccc(Cl)cc1)CCO2 [Example 61, N-tert-butyl-1-(4-chlorobenzylsulfonyl)-2,3-dihydro-1H-pyrido[2,3-b][1,4]oxazine-7-carboxamide]		2, 3, 5, 7, 8, 10, 39, 58, 61*, 69, 93*, 101, 102, 109, 110, 111, 112,
CC(C)(C)NC(=O)c1cnc2c(c1)N(S(=O)(=O)Cc1ccc(F)cc1)CCO2 [Example 62, N-tert-butyl-1-(4-fluorobenzylsulfonyl)-2,3-dihydro-1H-pyrido[2,3-b][1,4]oxazine-7-carboxamide]	> 30 µM	
CC(C)(CN1CCCCC1)NC(=O)c1cnc2c(c1)N(S(=O)(=O)c1ccc(C(F)(F)F)cc1)CCO2 [Example 77, N-(2-methyl-1-(piperidin-1-yl)propan-2-yl)-1-(4-(trifluoromethyl)phenylsulf-onyl)-2,3-dihydro-1H-pyrido[2,3-b][1,4]oxazine-7-carboxamide]	> 30 µM	
CCCS(=O)(=O)N1CCOc2ncc(C(=O)NC(C)(C)C)cc21 [Example 79, N-tert-butyl-1-(propylsulfonyl)-2,3-dihydro-1H-pyrido[2,3-b][1,4]oxazine-7-carboxamide]	> 30 µM	
CC(C)(C)NC(=O)c1cnc2c(c1)N(S(=O)(=O)c1ccc(C(C)(C)C)cc1)CCO2 [Example 82, N-tert-butyl-1-(4-tert-butylphenylsulfonyl)-2,3-dihydro-1H-pyrido[2,3-b][1,4]oxazine-7-carboxamide]	> 30 µM	
CC(C)(C)NC(=O)c1cnc2c(c1)N(S(=O)(=O)c1cccc(OC(F)(F)F)c1)CCO2 [Example 85, N-tert-butyl-1-(3-(trifluoromethoxy)phenyl-sulfonyl)-2,3-dihydro-1H-pyrido[2,3-b][1,4]oxazine-7-carboxamide]	> 30 µM	
Cc1cccc(S(=O)(=O)N2CCOc3ncc(C(=O)NC(C)(C)C)cc32)c1 [Example 86, N-tert-butyl-1-(m-tolylsulfonyl)-2,3-dihydro-1H-pyrido[2,3-b][1,4]oxazine-7-carboxamide]	> 30 µM	
CC(C)(C)NC(=O)c1cnc2c(c1)N(S(=O)(=O)c1ccc(Oc3ccccc3)cc1)CCO2 [Example 93, N-tert-butyl-1-(4-phenoxyphenylsulfonyl)-2,3-dihydro-1H-pyrido[2,3-b][1,4]oxazine-7-carboxamide]		2, 3, 5, 7, 8, 10, 39, 58, 61*, 69, 93*, 101, 102, 109, 110, 111, 112,
COc1ccc(S(=O)(=O)N2CCOc3ncc(C(=O)NC(C)(C)CO)cc32)cc1Cl [Example 100, 1-(3-chloro-4-methoxyphenylsulfonyl)-N-(1-hydroxy-2-methylpropan-2-yl)-2,3-dihydro-1H-pyrido[2,3-b][1,4]oxazine-7-carboxamide]	> 30 µM	
COc1ccc(S(=O)(=O)N2CCOc3ncc(C(=O)NCC(C)(C)O)cc32)cc1F [Example 105]	> 30 µM	
CC(C)(O)CNC(=O)c1cnc2c(c1)N(S(=O)(=O)c1ccc(F)cc1F)CCO2 [Example 106, 1-(2,4-difluorophenylsulfonyl)-N-(2-hydroxy-2-methylpropyl)-2,3-dihydro-1H-pyrido[2,3-b][1,4]oxazine-7-carboxamide]	> 30 µM	
COc1ccc(S(=O)(=O)N2CCOc3ncc(C(=O)NCC(C)(C)O)cc32)c(F)c1 [Example 107]	> 30 µM	
CC(C)(O)CNC(=O)c1cnc2c(c1)N(S(=O)(=O)c1ccc(F)c(Cl)c1)CCO2 [Example 108, 1-(3-chloro-4-fluorophenylsulfonyl)-N-(2-hydroxy-2-methylpropyl)-2,3-dihydro-1H-pyrido[2,3-b][1,4]oxazine-7-carboxamide]	> 30 µM	
O=C(NCCO)c1cnc2c(c1)N(S(=O)(=O)c1ccc(Cl)c(Cl)c1)CCO2 [Example 114, 1-(3,4-dichlorophenyl-sulfonyl)-N-(2-hydroxyethyl)-2,3-dihydro-1H-pyrido[2,3-b][1,4]oxazine-7-carboxamide]	> 30 µM	
CN(CCO)C(=O)c1cnc2c(c1)N(S(=O)(=O)c1ccc(Cl)c(Cl)c1)CCO2 [Example 120, 1-(3,4-dichlorophenyl-sulfonyl)-N-(2-hydroxy-ethyl)-N-methyl-2,3-dihydro-1H-pyrido[2,3-b][1,4]oxazine-7-carboxamide]	> 30 µM	
O=C(c1cnc2c(c1)N(S(=O)(=O)c1ccc(Cl)c(Cl)c1)CCO2)N1CCC[C@@H]1CO [Example 122, (R)-(1-(3,4-dichlorophenyl-sulfonyl)-2,3-dihydro-1H-pyrido[2,3-b][1,4]oxazin-7-yl)(2-(hydroxymethyl)pyrrolidin-1-yl)methanone]	> 30 µM	
CN1CCN(C(=O)c2cnc3c(c2)N(S(=O)(=O)c2ccc(Cl)c(Cl)c2)CCO3)CC1 [Example 123, (1-(3,4-dichlorophenyl-sulfonyl)-2,3-dihydro-1H-pyrido [2,3-b][1,4]oxazin-7-yl)(4-methylpiperazin-1-yl)methanone]	> 30 µM	
O=C(c1cnc2c(c1)N(S(=O)(=O)c1ccc(Cl)c(Cl)c1)CCO2)N1CCC(F)(F)C1 [Example 126, (1-(3,4-dichlorophenyl-sulfonyl)-2,3-dihydro-1H-pyrido[2,3-b][1,4]oxazin-7-yl)(3,3-difluoro-pyrrolidin-1-yl)methanone]	> 30 µM	
O=C(c1cnc2c(c1)N(S(=O)(=O)c1ccc(Cl)c(Cl)c1)CCO2)N1CCC(O)CC1 [Example 127, (1-(3,4-dichlorophenyl-sulfonyl)-2,3-dihydro-1H-pyrido[2,3-b][1,4]oxazin-7-yl)(4-hydroxypiperidin-1-yl)methanone]	> 30 µM	
O=C(c1cnc2c(c1)N(S(=O)(=O)c1ccc(Cl)c(Cl)c1)CCO2)N1CC(F)(F)C1 [Example 128, (1-(3,4-dichlorophenyl-sulfonyl)-2,3-dihydro-1H-pyrido[2,3-b][1,4]oxazin-7-yl)(3,3-difluoroazetidin-1-yl)methanone]	> 30 µM	
COC1CN(C(=O)c2cnc3c(c2)N(S(=O)(=O)c2ccc(Cl)c(Cl)c2)CCO3)C1 [Example 129, (1-(3,4-dichlorophenyl-sulfonyl)-2,3-dihydro-1H-pyrido[2,3-b][1,4]oxazin-7-yl)(3-methoxyazetidin-1-yl)methanone]	> 30 µM	
O=C(c1cnc2c(c1)N(S(=O)(=O)c1ccc(Cl)c(Cl)c1)CCO2)N1CCC1 [Example 130, azetidin-1-yl(1-(3,4-dichlorophenylsulfonyl)-2,3-dihydro-1H-pyrido[2,3-b][1,4]oxazin-7-yl)methanone]		130*, 136, 141, 142, 149, 156, 157, 163, 164, 168, 173, 183, 195,
